Type in all cases: cell-based
Settings in all cases: 48 hours

One assay has as its system HT-29. Put plainly: In vitro cytotoxicity against human cancer cell lines (sulforhodamine B), HT-29. The protocol: (§1) In vitro cytotoxicity against human cancer cell lines: The human cancer cell lines procured from National Cancer Institute, Frederick, U.S.A or National Center for Cell Science; Pune, India. were used in present study. Cells were grown in tissue culture flasks in complete growth medium (RPMI-1640 medium with 2 mM glutamine, 100 μg/ml streptomycin, pH 7.4, sterilized by filtration and supplemented with 10% fetal calf serum and 100 units/ml penicillin before use) at 37° C. in an atmosphere of 5% CO2 and 90% relative humidity in a carbon dioxide incubator. The cells at subconfluent stage were harvested from the flask by treatment with trypsin (0.5% in PBS containing 0.02% EDTA) for determination of cytotoxicity. Cells with viability of more than 98% as determined by trypan blue exclusion were used for assay. Cell suspension of the required cell density were prepared in complete growth medium with gentamycin (50 μg/ml) for determination of cytotoxicity.
(§2) Stock solutions of (2×10–2 M of test material were prepared in DMSO (Dimethyl sulphoxide). The stock solutions were serially diluted with complete growth medium containing 50 μg/ml of gentamycin to obtain working test solutions of required concentrations.
(§3) In vitro cytotoxicity against human cancer cell lines was determined (Monks, A , Scudiero, D., Skehan, P., Shoemaker R., Paull, K., Vistica, D., Hose, C., Langley, j., Cronise, P., Vaigro-Wolff, A., Gray-Goodrich, M., Campbell, H., Mayo, J and Boyd m.J. Natl. Cancer Inst., 1991, 83, 757–766) using 96-well tissue culture plates. 100 μl of cell suspension was added to each well of the 96-well tissue culture plate. The cells were incubated for 24 hours. Test materials in complete growth medium (100 μl) were added after 24 hours incubation to the wells containing cell suspension. The plates were further incubated for 48 hours (at 37° C. in an atmosphere of […] 90% relative humidity in a carbon dioxide incubator) after addition of test material and then the cell growth was stopped by gently layering trichloroacetic acid (TCA, 50 μl, 50%) on top of the medium in all the wells. The plates were incubated at 4° C. for one hour to fix the cells attached to the bottom of the wells. The liquid of all the wells was gently pipetted out and discarded. The plates were washed five times with distilled water to remove TCA, growth medium low molecular weight metabolites, serum proteins etc and air-dried. Cell growth was measured by staining with sulforhodamine B dye (Skehan et al., 1990). The adsorbed dye was dissolved in Tris-Buffer (100 m l, 0.01M, pH 10.4) and plates were gently stirred for 5 minutes on a mechanical stirrer. The optical density was recorded on ELISA reader at 540 nm.
(§4) The cell growth was calculated by subtracting mean OD value of respective blank from the mean OD value of experimental set. Percent growth in presence of test material was calculated considering the growth in absence of any test material as 100% and in turn percent growth inhibition in presence of test material will be calculated.

A further assay relates to HCT-15. Put plainly: In vitro cytotoxicity against human cancer cell lines (sulforhodamine B), HCT-15. How it is done:
as §1, §2
as §3, with “The plates were washed five times with distilled water to remove TCA, growth medium low molecular weight metabolites, serum proteins etc and air-dried.” left out, “The adsorbed dye was dissolved in Tris-Buffer (100 m l, 0.01M, pH 10.4) and plates were gently stirred for 5 minutes on a mechanical stirrer.” left out
as §4

For another assay, the system named is A-549. Put plainly: In vitro cytotoxicity against human cancer cell lines (sulforhodamine B), A-549. How it is done:
as §1, §2, §3, §4

A further assay deals with HOP-62. The experiment in a line: In vitro cytotoxicity against human cancer cell lines (sulforhodamine B), HOP-62. How it is done:
as §1, §2
as §3, with “The plates were washed five times with distilled water to remove TCA, growth medium low molecular weight metabolites, serum proteins etc and air-dried.” left out, “The adsorbed dye was dissolved in Tris-Buffer (100 m l, 0.01M, pH 10.4) and plates were gently stirred for 5 minutes on a mechanical stirrer.” left out
as §4

The test system of the next assay is SiHa. Put plainly: In vitro cytotoxicity against human cancer cell lines (sulforhodamine B), SiHa. How it is done: as §1, §2, §3, §4
Where [1] appears, read: HT-29, concentration 10-4 mol/L.
[2] abbreviates: HT-29, concentration 10-5 mol/L.
Where [3] appears, read: HT-29, concentration 10-6 mol/L.
Where [4] appears, read: HCT-15, concentration 10-5 mol/L.
The mark [5] stands for this setting: HCT-15, concentration 10-6 mol/L.
[6] abbreviates: A-549, concentration 10-4 mol/L.
The mark [7] stands for this setting: A-549, concentration 10-5 mol/L.
Where [8] appears, read: A-549, concentration 10-6 mol/L.
Setting [9] is: HOP-62, concentration 10-5 mol/L.
[10] abbreviates: HOP-62, concentration 10-6 mol/L.

Each structure is given as a SMILES string.

Take `COc1cc2c(cc1OCCCCC(=O)Nc1cccc3c1C(=O)c1ccccc1C3=O)N=C[C@@H]1CCCN1C2=O` [compound Vc, 7-Methoxy-8-[N-(9,10-dihydro-9,10-dioxo-1-anthracenyl)-butane-4-carboxamide]-oxy-(11aS)-1,2,3,11a tetrahydro-5H-pyrrolo [2,1-c][1,4]benzodiazepin-5-one]: the percentage growth inhibition with HT-29 (setting [1]) was determined as 93%; with HT-29 (setting [2]) it was 87%; with HT-29 (setting [3]), 73%; in the assay with HCT-15 (setting [4]), 82%; in the assay with HCT-15 (setting [5]) it was 61%; with A-549 (setting [6]) it was 93%. Moreover, the percentage growth inhibition in the assay with A-549 (setting [7]) worked out at 10%; in the assay on A-549 (setting [8]), 56%; in the assay on HOP-62 (setting [9]), 97%; in the assay on HOP-62 (setting [10]) it was 73%; in the assay on SiHa (concentration 10-4 mol/L), 73%; in the assay on SiHa (concentration 10-5 mol/L) it was 49%. In the assay with SiHa (concentration 10-6 mol/L), this molecule yielded a percentage growth inhibition of 40%.

Consider `COc1cc2c(cc1OCCCC(=O)Nc1cccc3c1C(=O)c1ccccc1C3=O)N=C[C@@H]1CCCN1C2=O` [compound Va, 7-Methoxy-8-[N-(9,10-dihydro-9,10-dioxo-1-anthracenyl)-propane-3-carboxamide]-oxy-(11aS)-1,2,3,11a tetrahydro-5H-pyrrolo[2,1-c][1,4]benzodiazepin-5-one], for which the percentage growth inhibition with HT-29 (setting [1]) is reported as 93%; with HT-29 (setting [2]) it was 86%; with HT-29 (setting [3]) it was 68%; in the assay with HCT-15 (setting [4]), 66%; with HCT-15 (setting [5]), 59%; in the assay with A-549 (setting [6]) it was 93%. For the same molecule, the percentage growth inhibition in the assay with A-549 (setting [7]) came to 27%; in the assay on A-549 (setting [8]) it was 47%; in the assay on HOP-62 (setting [9]) it was 90%; with HOP-62 (setting [10]) it was 74%; in the assay on SiHa (concentration 10-4 mol/L), 57%; with SiHa (concentration 10-5 mol/L), 52%. The molecule further returned a percentage growth inhibition in the assay with SiHa (concentration 10-6 mol/L) of 41%.

The values above are taken from patent US7173026B2, “Pyrrolo [2,1-c][1,4]benzodiazepine-anthraquinone conjugates useful as antitumour agents” (Council of Scientific and Industrial Research, priority 2004, dated 2007).
